Eight compounds from patent publication US20070232577A1, “Synthetic pentacyclic triterpenoids and derivatives of betulinic acid and betulin” (Advanced Life Sciences, Inc., priority 2006, published 2007) can be followed below.

For data set [1], the system named is SK-MEL-2 (melanoma).
Procedure: (§2) Cells were plated, the evening before treatment, for each treatment on 96-well plates (1×10^4 cells/well) in 100 μL volume per well. Drug solutions were prepared by diluting each test compound in DSMO (10 mM) with the appropriate cell growth media for each individual cell line, or in “Universal Media” if several cell lines were to be assayed in parallel, immediately prior to cell treatment. Universal Media consisted of 5 mL sodium pyruvate (100×liquid stock, CellGro), 5 mL glucose (100×, 45% liquid stock, CellGro), 5 mL Penicillin/Streptomycin (100×liquid stock, CellGro), 10 mL sodium bicarbonate (50×liquid stock, CellGro), 25 mL Fetal Calf Serum, 1.25 mL insulin (4 mg/mL, Gibco) and 449 mL RPMI media with 2 mM glutamine for a total volume of 500 mL. Cells were treated by aspirating media from each well and adding 80 μL of each drug solution to the attached cells. All treatments were performed in triplicate. Growth media (80 μL) were added to 3 blank wells (no cells) to measure background from the growth media Growth media alone (no DMSO or test compond) was added to 2 wells containing cells to measure the baseline MTS activity and vehicle (DMSO) control solutions were also included to monitor basal toxicity from DMSO. Cells were incubated at 37° C. for 72 h. MTS reagent (per 96-well plate) were prepared by combining 2 mL of MTS working solution (Cell Titer AQueous Non-Radioactive Cell Proliferation Assay, Promega, cat#G1112), 100 μL of 0.92 mg/mL phenazine methosulfate/Dulbecco's PBS and 2.1 mL growth media. MTS reagent (40 μL) were added to each well and incubated at 37° C. for 1.5 to 4 h. Plates were gently shaken by hand until solution in each well appeared homogenous. Absorbances at 490 nm were measured on a plate reader at multiple time points following the addition of MTS reagent for each plate. Triplicate absorbance (490 nm) measurements were averaged following background (no cell) subtraction for each drug concentration. Percent Cell Viability was calculated for each drug concentration using the following equation: {[Absorbances(drug treated)]/[Absorbances(DMSO treated)]}×100%
(§3) Percent viability (y-axis) was plotted against drug concentration (x-axis) and the resulting graph was used to determine the 50% inhibitory concentration (IC50) for each drug.
The next data set relates to A-375 (melanoma). In words: MTS cell viability assay, A-375. It is filed as cell-based. The note with it: Homo sapiens, 72 h. On the procedure: (§1) All treatments were performed in triplicate. […] Cells were incubated at 37° C. for 72 h.
(In general: Tetrazolium assays rely on reduction of a dye to a coloured formazan, in cell work by metabolically active cells.)

The next data set relates to LN-229 (glioblastoma). In words: MTS cell viability assay, LN-229. It is filed as cell-based. Conditions: Homo sapiens, 72 h. Here is the method:
as §1

For data set [2], the system named is OVCAR-3 (ovarian carcinoma). Put plainly: MTS cell viability assay, OVCAR-3. The data set is classed as cell-based. Conditions: Homo sapiens, 72 h. Here is the method:
as §1

A further data set deals with HT-29 (colon carcinoma). Put plainly: MTS cell viability assay, HT-29. It is filed as cell-based. Conditions: Homo sapiens, 72 h. Here is the method:
as §1

Another data set has as its system MCF-7 (breast carcinoma). Put plainly: MTS cell viability assay, MCF-7. It is filed as cell-based. The note with it: Homo sapiens, MCF7, 72 h. Here is the method:
as §1

In data set [3] the test system is SK-MEL-2, A-375, Daoy, LN-229, OVCAR-3, HT-29, MCF-7 cell lines. It is filed as cell-based. On the procedure: as §1
The next data set deals with SK-MEL-2 cells. In words: Caspase activation assay, SK-MEL-2. It is filed as cell-based. Conditions: for caspase activating property compared with betulinic acid (1): SK-MEL-2, 5, 15, 50 μM, 2-24 h, absence of FBS. Here is the method: All treatments were performed in duplicate. […] Cells were incubated at 37° C. for 8 h. Caspase assay reagent (per 96-well plate) was prepared according to manufacturer's instructions (Homogeneous Caspases Assay, fluorometric, Roche) by combining 6.3 mL Incubation Buffer with 0.7 mL of Substrate Stock Solution. Caspase assay reagent (70 μL) was added to each well; the plate was gently shaken by hand for 15-20 seconds and incubated at 37° C. for 4 h.
Fluorescent emission was measured at 535 nm on a plate reader using the “homogeneous caspase” program (excitation Wavelength=490 nm, emission wavelength=535 nm). Duplicate wells for each treatment were averaged following background (no cells) subtraction (emission 535 nm value from all experimental emission 535 nm values) for each drug concentration.
DMSO treatment represented baseline caspase activation in the absence of drug. The percent changes in caspase activity were plotted on the y-axis for each drug treatment.
Caspase activation assays were conducted to further characterize the mode of cell death. A treatment time and dose at which maximum caspase activation was observed prior to massive cell destruction would be indicative of apoptosis induction. SK-MEL-2 cells were treated with 5, 15, and 50 μM of the compound for 2, 4, 6, 8, 16, and 24 h in the absence of FBS (Fetal Bovine Serum).

The next data set deals with SK-MEL-2. In words: Annexin-V assay (apoptosis versus necrosis). Conditions: for selective apoptosis and dose dependence (in words): cell line not stated, above optimal dose cellular damage and non-apoptotic cell death. It is filed as cell-based. On the procedure:
Cells were plated (8.75×10^5 cells/6 cm. diameter tissue culture plates), the evening before treatment, in 4 mL volume per plate. This cell density is equivalent to the cell density used in the MTS and Caspase assays (1×10^4 cells/well (96-well plate). Drug solutions were prepared, immediately prior to cell treatment, in the same as described for caspase assay
Growth media alone (no DMSO or drug) was added to a plate containing cells to measure the baseline-Annexin-V reactivity and vehicle (DMSO) alone control solutions were also prepared to monitor Annexin-V reactivity from DMSO. Cells were incubated at 37° C. for 8 h. Growth media (3 mL) was removed from each plate and added to a 15 mL conical tube containing 0.333 mL FCS (final FCS concentration of 10%). The media was saved to include any apoptotic/dead cells that may have detached from the plate during drug treatment. FCS was added to the media to prevent further cell damage and improve the efficiency of cell pelleting during subsequent centrifugation steps (empirical observation). Adherent cells were rinsed once with PBS and 1 mL of trypsin was added. Plates were rotated several times to assure coating of the entire surface with trypsin which was then removed. Plates were incubated at 37° C. for 4-5 min. Trypsinized cells were re-suspended in the saved media for each sample. Cell suspension was placed back into 15 mL tubes, which were then cooled on ice. Cells were re-suspended by pipetting 7-8 times. The tubes were centrifuged at 130×g for 5 min at 4° C. The resulting cell pellets were re-suspended in the ice cold 1 mL of 1× Nexin Buffer (Guava Nexin kit, Guava Technologies) and transferred to 1.5 mL conical microcentrifuge tubes to rinse cells with residual growth media. This procedure was repeated by centrifugation of cells at 130×g for 5 min, at 4° C. Re-suspension of the resulting cell pellet in 50 μL Nexin Staining Solution (Guava Nexin kit, Guava Technologies) was followed by incubation on ice, in the dark, for 20 min. Guava Samples were analyzed immediately on the Guava flow cytometer, using the Guava Nexin software package (see Guava user's manual and Guava Nexin kit protocol on data acquisition and analysis protocols).

Data set [4] deals with Daoy (glioblastoma). Put plainly: MTS cell viability assay, Daoy. Conditions: Homo sapiens, Daoy, 72 h, read-out: IC50 Daoy.
Procedure: as §2, §3
Data set [5] concerns SK-MEL-2 (melanoma). Put plainly: MTS cell viability assay, SK-MEL-2. Conditions: Homo sapiens, SK-MEL-2, 72 h, read-out: IC50 SK-MEL-2.
Procedure: as §2, §3
The subject of data set [6] is Daoy (glioblastoma).
Procedure: as §2, §3

≈ marks a conversion by molar mass, not a printed value.

With `C=C(C)[C@@H]1CC[C@]2(C(=O)O)CC[C@]3(C)[C@H](CC[C@@H]4[C@@]5(C)CC[C@H](OC(=O)/C=C/c6ccc(OC(C)=O)c(OC(C)=O)c6)C(C)(C)[C@@H]5CC[C@]43C)[C@@H]12` [Compound 24, (1R,3aS,5aR,5bR,7aR,9S,11aR,11bR,13aR, 13bR)-9-((E)-3-(3,4-diacetoxyphenyl)acryloyloxy)-5a,5b,8,8,11a-pentamethyl-1-(prop-1-en-2-yl)icosahydro-1H-cyclopenta[a]chrysene-3a-carboxylic acid], the “improvement in cytotoxicity relative to betulinic acid 1 in SK-MEL-2” value with SK-MEL-2 (melanoma) [1] is on record as “greater than 5 fold”.

On to `C=C(C)[C@@H]1CC[C@]2(C(=O)O)CC[C@]3(C)[C@H](CC[C@@H]4[C@@]5(C)CC[C@H](OC(=O)/C=C/c6ccc(O)c(O)c6)C(C)(C)[C@@H]5CC[C@]43C)[C@@H]12` [Compound 25, (1R,3aS,5aR,5bR,7aR,9S,11aR,11bR,13aR, 13bR)-9-((E)-3-(3,4-dihydroxyphenyl)acryloyloxy)-5a,5b,8,8,11a-pentamethyl-1-(prop-1-en-2-yl)icosahydro-1H-cyclopenta[a]chrysene-3a-carboxylic acid], for which, in the data set on SK-MEL-2 (melanoma) [1], the “improvement in cytotoxicity relative to betulinic acid 1 in SK-MEL-2” value is given as “greater than 5 fold”.

Turning to `C=C(C)[C@@H]1CC[C@]2(COC3CCCCO3)CC[C@]3(C)[C@H](CC[C@@H]4[C@@]5(C)CC6=C(ON(O)C6)C(C)(C)[C@@H]5CC[C@]43C)[C@@H]12` (stereo partly drawn) [Compound 32, (1R,3aS,5aR,5bR,7aR,12aR,12bR,14aR,14bR)-1-isopropenyl-5a,5b,8,8,12a-pentamethyl-3a-[(tetrahydro-2H-pyran-2-yloxy)methyl]-1,2,3,3a,4,5,5a,5b,6,7,7a,8,11,12,12a,12b,13,14, 14a,14b-icosahydro-10H-cyclopenta[7,8]chryseno[3,2-d]isoxazol-10-ol], the IC50 (usually the concentration that gives 50% inhibition) is 6 µg/mL (≈ 10.6 µM) in the data set on A-375 (melanoma); 6 µg/mL (≈ 10.6 µM) in the data set on LN-229 (glioblastoma); 6 µg/mL (≈ 10.6 µM) in data set [2]; 8 µg/mL (≈ 14.1 µM) with HT-29 (colon carcinoma); 6 µg/mL (≈ 10.6 µM) in the data set with MCF-7 (breast carcinoma); 6 µg/mL (≈ 10.6 µM) in the data set with Daoy (glioblastoma) [4]. The IC50 with SK-MEL-2 (melanoma) [5] was 5 µg/mL (≈ 8.81 µM). Further, in data set [3], the “cytotoxic potency across the cell line panel (in words)” value is “potent across the entire cell line panel”. For the same compound, the “caspase activating property compared with betulinic acid (1)” value in the data set with SK-MEL-2 cells is “more robust caspase activating property than betulinic acid”. For the same compound, the “selective apoptosis and dose dependence (in words)” value in the data set on SK-MEL-2 is “induced selective apoptosis at an optimal dose”.

Take `C=C(C)[C@@H]1CC[C@]2(CO)CC[C@]3(C)[C@H](CC[C@@H]4[C@@]5(C)C=C(C#N)C(=O)C(C)(C)[C@@H]5CC[C@]43C)[C@@H]12` [Compound 38, (1R,3aS,5aR,5bR,7aR,11aR,11bR,13aR,13bR)-3a-(hydroxymethyl)-5a,5b,8,8,11a-pentamethyl-9-oxo-1-(prop-1-en-2-yl)-2,3,3a,4,5,5a,5b,6,7,7a, 8,9,11a,11b,12,13,13a,13b-octadecahydro-1H-cyclopenta[a]chrysene-10-carbonitrile]: the concentration for half-maximal inhibition (IC50) stood at 6 µg/mL (≈ 12.9 µM) in the data set on A-375 (melanoma); 6 µg/mL (≈ 12.9 µM) with LN-229 (glioblastoma); 7 µg/mL (≈ 15.1 µM) in data set [2]; 8 µg/mL (≈ 17.3 µM) in the data set on HT-29 (colon carcinoma); 8 µg/mL (≈ 17.3 µM) in the data set on Daoy (glioblastoma) [4]; 6 µg/mL (≈ 12.9 µM) in the data set with SK-MEL-2 (melanoma) [5]. Besides, the “cytotoxic potency across the cell line panel (in words)” value in [3] is “potent across the entire cell line panel”. For the same compound, the “caspase activation in SK-MEL-2 (in words)” value with SK-MEL-2 cells (SK-MEL-2) is on record as “activated caspases”. The “caspase activating property compared with betulinic acid (1)” value in the data set on SK-MEL-2 cells is listed as “more robust caspase activating property than betulinic acid”. Besides, the “apoptosis versus necrosis by the Annexin assay (in words)” value in the data set with SK-MEL-2 (SK-MEL-2) was “inducing apoptosis over necrosis robustly”. In addition, in the data set on SK-MEL-2 (caspase and Annexin assays, SK-MEL-2), the “rank as apoptosis inducer within the collection (in words)” value was “most potent apoptosis inducer”.

As for `C=C(C)[C@@H]1CC[C@]2(CNCCO)CC[C@]3(C)[C@H](CC[C@@H]4[C@@]5(C)CC[C@H](O)C(C)(C)[C@@H]5CC[C@]43C)[C@@H]12` [Compound 69, (1R,3aS,5aR,5bR,7aR,9S,11aR,11bR,13aR,13bR)-3a-((2-hydroxyethylamino)methyl)-5a,5b,8,8,11a-pentamethyl-1-(prop-1-en-2-yl)icosahydro-1H-cyclopenta[a]chrysen-9-ol], the IC50 was 4 µg/mL (≈ 8.23 µM) in the data set on A-375 (melanoma); below 10 µg/mL in data set [2]; 2 µg/mL (≈ 4.12 µM) with HT-29 (colon carcinoma); below 10 µg/mL in the data set on MCF-7 (breast carcinoma); below 2 µg/mL in the data set with Daoy (glioblastoma) [4]; 5 µg/mL (≈ 10.3 µM) in the data set on SK-MEL-2 (melanoma) [5]. In addition, the “cytotoxic potency across the cell line panel (in words)” value in [3] was “potent across the entire cell line panel”. The “improvement in cytotoxicity relative to betulinic acid 1 in SK-MEL-2” value with SK-MEL-2 (melanoma) [1] is recorded as “greater than 5 fold”. In addition, the “improvement in cytotoxicity relative to betulinic acid 1 in Daoy” value in the data set on Daoy (glioblastoma) [6] was “greater than 5 fold”.

Turning to `C=C(C)[C@@H]1CC[C@]2(CNCC(=O)OC)CC[C@]3(C)[C@H](CC[C@@H]4[C@@]5(C)CC[C@H](OC(C)=O)C(C)(C)[C@@H]5CC[C@]43C)[C@@H]12` [Compound 72, methyl 2-(((1R,3aS,5aR,5bR,7aR,9S,1iaR,11bR,13aR,13bR)-9-acetoxy-5a,5b,8,8,11a-pentamethyl-1-(prop-1-en-2-yl)icosahydro-1H-cyclopenta[a]chrysen-3a-yl)methylamino)acetate], the IC50 in the data set with A-375 (melanoma) is 6 µg/mL (≈ 10.8 µM); with LN-229 (glioblastoma) it was above 75 µg/mL; in data set [2], 36 µg/mL (≈ 64.8 µM); in the data set with HT-29 (colon carcinoma), above 75 µg/mL; in the data set on MCF-7 (breast carcinoma), 75 µg/mL (≈ 135 µM); in the data set on Daoy (glioblastoma) [4], 6 µg/mL (≈ 10.8 µM). Further, the IC50 in the data set on SK-MEL-2 (melanoma) [5] amounted to 6 µg/mL (≈ 10.8 µM). Moreover, the “improvement in cytotoxicity relative to betulinic acid 1 in SK-MEL-2” value in the data set with SK-MEL-2 (melanoma) [1] is on record as “greater than 5 fold”. In the data set with Daoy (glioblastoma) [6], the “improvement in cytotoxicity relative to betulinic acid 1 in Daoy” value is recorded as “greater than 5 fold”.

Consider `C=C(C)[C@@H]1CC[C@]2(CO)CC[C@]3(C)[C@H](CC[C@@H]4[C@@]5(C)CCC(NCCc6ccc(O)cc6)C(C)(C)[C@@H]5CC[C@]43C)[C@@H]12` (stereo partly drawn) [Compound 75, 4-(2-((1R,3aS,5aR,5bR,7aR,11aR,11bR,13aR,13bR)-3a-(hydroxymethyl)-5a,5b,8,8,11a-pentamethyl-1-(prop-1-en-2-yl)icosahydro-1H-cyclopenta[a]chrysen-9-ylamino)ethyl)phenol], for which the “caspase activating property compared with betulinic acid (1)” value in the data set on SK-MEL-2 cells is on record as “more robust caspase activating property than betulinic acid”. For the same compound, the “selective apoptosis and dose dependence (in words)” value with SK-MEL-2 was “induced selective apoptosis at an optimal dose”.

Consider `C=C(C)[C@@H]1CC[C@]2(C(=O)O)CC[C@]3(C)[C@H](CC[C@@H]4[C@@]5(C)CCC(NCCNC(=O)OC(C)(C)C)C(C)(C)[C@@H]5CC[C@]43C)[C@@H]12` (stereo partly drawn) [Compound 79, (1R,3aS,5aR,5bR,7aR,11aR,11bR,13aR,13bR)-9-(2-(tert-butoxycarbonylamino)ethylamino)-5a,5b,8,8,11a-pentamethyl-1-(prop-1-en-2-yl)icosahydro-1H-cyclopenta[a]chrysene-3a-carboxylic acid], for which, in the data set on SK-MEL-2, the “selective apoptosis and dose dependence (in words)” value is recorded as “induced selective apoptosis at an optimal dose”.
